Assay results: article PMC6992764 (Nature Communications, 2020)

Assays:
THP-1 cells = test: Cell viability alongside chemotaxis assay; assay type: cell-based, human; settings: at the concentrations tested in chemotaxis
B16 melanoma = test: B16 lung metastasis model; assay type: in vivo, C57BL/6 mice
Description: For evaluating subcutaneous tumor growth, LLC or B16 cells (5 × 10^5) in 50 μl PBS were inoculated subcutaneously into the right flanks of mice. Mice were euthanized when their tumor volumes reached 4000 mm^3. Tumor sizes were measured twice a week using calipers. Tumor volume was calculated using the following formula: Volume = (width)^2 × length/2. For the lung metastasis model, 1 × 10^6 LLC or B16 cells in 200 μl PBS were injected intravenously into mice. Mice were euthanized at day 10 after tumor injection for the LLC model and day 5–9 for the B16 model, and the lungs were isolated after perfusion with PBS via the left ventricle. Visible lung metastases were counted in the left lobe. The diameters of metastatic nodules in the lung lobe image were measured using ImageJ software. […] Anti-PD-1 antibody (clone J43, BioXcell) was injected intraperitoneally at a dose of 200 μg per mouse on day 5, 8, 14, and 18 after tumor inoculation. Mice were anesthetized and perfused with PBS and the left lungs were isolated. […] Fluorescence images derived from B16-DsRed cells and stained antibodies were obtained using an SP5 confocal microscope (Leica Microsystems). The F4/80 + macrophage number accumulated in and around the tumor nodule visualized by fluorescent protein was counted per nodule of similar sizes among the control and FROUNT-cKO, vehicle, or DSF-treated groups.

[1] = tested on: Lewis lung carcinoma (LLC); test: LLC lung metastasis model; assay type: in vivo, C57BL/6 mice; settings: LLC i.v.; DSF 40 mg kg-1 i.p. daily
Description: For evaluating subcutaneous tumor growth, LLC or B16 cells (5 × 10^5) in 50 μl PBS were inoculated subcutaneously into the right flanks of mice. Mice were euthanized when their tumor volumes reached 4000 mm^3. Tumor sizes were measured twice a week using calipers. Tumor volume was calculated using the following formula: Volume = (width)^2 × length/2. For the lung metastasis model, 1 × 10^6 LLC or B16 cells in 200 μl PBS were injected intravenously into mice. Mice were euthanized at day 10 after tumor injection for the LLC model and day 5–9 for the B16 model, and the lungs were isolated after perfusion with PBS via the left ventricle. Visible lung metastases were counted in the left lobe. The diameters of metastatic nodules in the lung lobe image were measured using ImageJ software. […] Anti-PD-1 antibody (clone J43, BioXcell) was injected intraperitoneally at a dose of 200 μg per mouse on day 5, 8, 14, and 18 after tumor inoculation.

LLC tumor cells = test: LLC tumor cell growth (WST-1 assay); assay type: cell-based; settings: 48 h
Description: To evaluate the effects of compounds on cell growth, cells were incubated with inhibitors for 48 h, then WST-1 (Dojindo) was added to the culture for the final 30 min. An Envision instrument (PerkinElmer) was used to measure the absorbance of each well at 450 nm versus a 650-nm reference to detect the amount of formazan produced from WST-1 by mitochondrial dehydrogenases in viable cells.

[2] = tested on: LLC tumor cells co-cultured with monocytes; test: Tumor cell co-culture with monocytes/macrophages; assay type: cell-based, mice; settings: nano-molar concentrations of DSF
Description: Monocytes were enriched from bone marrow cells by MACS negative selection for CD3, B220, Ly-6G, NK1.1, Ter119, CD49b, and c-kit. The percentage of Ly-6C^hi Ly-6G^− monocytes were >80%. Monocytes (1 × 10^5) and 100 DsRed^+ LLC tumor cells were co-cultured for 24 h. Proliferating tumor cell clusters containing more than 10 cells were enumerated by fluorescent microscopy. For flow cytometry analysis, cultured cells were harvested with trypsin-EDTA after 3 days of culture. Cells were stained with CD45-FITC (clone 102, BioLegend), then stained with annexin V-APC in binding buffer (BD biosciences). For detection of DNA synthesis, 5-ethynyl-2´-deoxyuridine (EdU) was added to the culture in the final hour of incubation. Intracellular EdU was stained using Click-iT® EdU Alexa Fluor™ 647 flow cytometry assay kits (Thermo Fisher Scientific) according to manufacturer’s instructions. Flow cytometry data were obtained by gating CD45(−) DsRed(+) cells and analyzing annexin V-positive cells or EdU-positive cells. Dead cells were excluded by Zombie Aqua staining (BioLegend). Stained cells were measured using Flow-Count™ Fluorospheres (Beckman Coulter) for the determination of absolute counts.

CCN(CC)C(=S)SSC(=S)N(CC)CC [DSF, disulfiram] was tested, and the “cytotoxicity (cell viability)” value (THP-1 cells) was “without any cytotoxicity”, the “lung metastatic nodule formation” value (B16 melanoma; B16 i.v., DSF 40 mg kg-1 i.p. daily) was “significantly reduced” and the “macrophage accumulation around tumor metastatic nodules” value (B16 melanoma; day 12 after B16 tumor cell injection, F4/80) was “diminished”. The “lung metastatic nodule formation” value [1] was “significantly reduced”, the in vitro growth (LLC tumor cells) was “no effect” and the “tumor cell growth induced by co-culture with monocytes” value [2] was “inhibited”.
